# Patent US12606534B2, “Method for the treatment of keratin materials using acid, ester or amide C-glycoside derivatives, and cosmetic composition containing same” (L'OREAL, priority 2016, dated 2026)
# Test system: normal human melanocytes
# Assay: Depigmenting activity (reduction of melanin production) in normal human melanocytes in vitro
# Type: cell-based
# Details: compound at 100 μM, 72 hours incubation, optical density (amount of melanin)
# Experimental: The depigmenting activity (reduction of melanin production) of compounds of formula (I) was measured by assay in normal human melanocytes in vitro as follows.
# First, normal human melanocytes are cultured and distributed in a multiple-well plate.
# After 24 hours, the culture medium was replaced with a medium containing the compounds of formula (I) to be evaluated. The cells were incubated for 72 hours before measuring the final optical density, which measures the amount of melanin produced by the melanocytes. The measurement was calibrated and the compounds were tested at 100 μM.
# Various test runs were performed and the results are collated in the following tables.
smiles,measurement,setting,value
CC(=O)OC[C@H]1OC(CC(=O)O)[C@H](OC(C)=O)[C@@H](OC(C)=O)[C@@H]1OC(C)=O (stereo partly drawn) [Compound 1],"% depigmentation at 100 μM, Run 3",Run 3,24%
O=C(O)C[C@@H]1O[C@H](CO)[C@@H](O)[C@H](O)[C@H]1O [Compound 2],"% depigmentation at 100 μM, Run 2",Run 2,29%
C[C@@H]1OC(CC(=O)N(C)C)[C@H](O)[C@H](O)[C@H]1O (stereo partly drawn) [Compound 4],"% depigmentation at 100 μM, Run 1",Run 1,15%
